Data published in PubChem BioAssay AID977620 (Broad Institute, 2014).
Active and inactive are the calls of the source.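 The calls were made as follows: active = signal-lowering curve whose fitted AC50 is at or under twice the top valid dose of that sample; inconclusive = flat fit with a moderate drop, or a poor fit; inactive = the rest.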

How the values were obtained:
[1] = viability loss in A549 lung cancer cells – cell-based, CellTiter-Glo luminescence, dry powder, set 14, cytotoxicity control, dose response (AID 977620); conditions: A549 viability, CellTiter-Glo ATP luminescence, 72 h; at 30 µM (top of the series)
[2] = system: A549 viability, CellTiter-Glo ATP luminescence, 72 h; assay: as above

SMILES | activity change, negative = cytotoxicity [1] | AC50 [2]
COc1ccccc1NC(=O)c1cc(S(=O)(=O)N(C)C)ccc1N1CCCC1 | -6.88% (inactive) | 
Cc1cnc(NC(=O)c2cc(S(=O)(=O)N(C)C)ccc2N(C)C)s1 | -11.3% (inactive) | 
CCN(CC)c1ccc(S(=O)(=O)N(C)C)cc1C(=O)Nc1ncc(C)s1 |  | > 60 µM (inactive)
CN(C)S(=O)(=O)c1ccc(N2CCCC2)c(C(=O)Nc2ccncc2)c1 | -5.75% (inactive) | 
Cc1cnc(NC(=O)c2cc(S(=O)(=O)N3CCOCC3)ccc2N2CCCC2)s1 |  | 23.3 µM
Cc1cnc(NC(=O)c2cc(S(=O)(=O)N(C)C)ccc2N2CCC2)s1 |  | > 60 µM (inactive)
CN(C)S(=O)(=O)c1ccc(N2CCCC2)c(C(=O)Nc2nc3ccccc3s2)c1 |  | 25.9 µM
Cc1nnc(NC(=O)c2cc(S(=O)(=O)N(C)C)ccc2N2CCCC2)s1 | -7.41% (inactive) | 
CN(C)S(=O)(=O)c1ccc(N2CCCC2)c(C(=O)NC2CCCCC2)c1 | -6.42% (inactive) | 
COc1cccc2sc(NC(=O)c3cc(S(=O)(=O)N(C)C)ccc3N3CCCC3)nc12 | -3.6% (inactive) | 
CN(C)S(=O)(=O)c1ccc(N2CCCC2)c(C(=O)Nc2ccc(Br)cc2)c1 |  | > 60 µM (inactive)
CN(C)CCCN(Cc1cc2ccccc2[nH]c1=O)C(=O)Nc1ccccc1 | -3.6% (inactive) | 
Cc1cnc(NC(=O)c2cc(S(=O)(=O)N(C)C)ccc2N2CCCCC2)s1 |  | > 60 µM (inactive)
COc1ccc2sc(NC(=O)c3cc(S(=O)(=O)N(C)C)ccc3N3CCCC3)nc2c1 |  | > 60 µM (inactive)
CN(C)CCCN(Cc1cc2ccccc2[nH]c1=O)C(=O)NCc1ccccc1 | -11.2% (inactive) | 
CN(C)S(=O)(=O)c1ccc(N2CCCC2)c(C(=O)Nc2cccc(F)c2)c1 | -13.3% (inactive) | 
COc1ccc(NC(=O)c2cc(S(=O)(=O)N(C)C)ccc2N2CCCC2)cc1 | -10.6% (inactive) | 
Cc1cnc(NC(=O)c2cc(S(=O)(=O)N3CCCCC3)ccc2N2CCCC2)s1 |  | > 60 µM (inactive)

SMILES | activity change, negative = cytotoxicity [1] | AC50 [2]
CCN(CC)S(=O)(=O)c1ccc(N2CCCC2)c(C(=O)Nc2ncc(C)s2)c1 |  | > 60 µM (inactive)
Cc1ccc(NC(=O)c2cc(S(=O)(=O)N(C)C)ccc2N2CCCC2)cc1 |  | > 60 µM (inactive)
CN(C)S(=O)(=O)c1ccc(N2CCCC2)c(C(=O)N2CCOCC2)c1 | -6.88% (inactive) | 
Cc1ccccc1NC(=O)c1cc(S(=O)(=O)N(C)C)ccc1N1CCCC1 | -11.9% (inactive) | 
Cc1cnc(NC(=O)c2cccc(S(=O)(=O)N(C)C)c2)s1 | 3.41% (inactive) | 
CN(C)S(=O)(=O)c1ccc(N2CCCC2)c(C(=O)Nc2nccs2)c1 |  | > 60 µM (inactive)
Cc1cnc(NC(=O)c2cc(S(=O)(=O)N(C)C)ccc2C2CCCC2)s1 |  | > 60 µM (inactive)
Cc1nc(NC(=O)c2cc(S(=O)(=O)N(C)C)ccc2N2CCCC2)n[nH]1 | -5.15% (inactive) | 
Cc1cnc(NC(=O)c2cc(S(=O)(=O)NCc3ccccc3)ccc2N2CCCC2)s1 | -16.4% (inactive) | 
Cc1cnc(NC(=O)c2cc(S(=O)(=O)N3CCNCC3)ccc2N2CCCC2)s1 |  | > 60 µM (inactive)
CN(C)S(=O)(=O)c1ccc(N2CCCC2)c(C(=O)Nc2ccccc2)c1 |  | > 60 µM (inactive)
CN(C)S(=O)(=O)c1ccc(N2CCCC2)c(C(=O)Nc2ccccc2Cl)c1 | -2.95% (inactive) | 
CN(C)C(=O)c1cc(S(=O)(=O)N(C)C)ccc1N1CCCC1 | -2.1% (inactive) | 
Cc1cnc(NC(=O)c2cc(S(=O)(=O)N(C)C)ccc2N2CCNCC2)s1 | -10.1% (inactive) | 
Cc1cnc(NC(=O)c2cc(S(=O)(=O)N(CC(C)C)CC(C)C)ccc2N2CCCC2)s1 |  | > 60 µM (inactive)
CN(C)S(=O)(=O)c1ccc(N2CCCC2)c(C(=O)Nc2cccnc2)c1 | -10% (inactive) | 
COc1ccc2nc(NC(=O)c3cc(S(=O)(=O)N(C)C)ccc3N3CCCC3)sc2c1 | -22.2% (inactive) | 
Cc1cnc(NC(=O)c2cc(S(=O)(=O)N(C)c3ccccc3)ccc2N2CCCC2)s1 | 0.919% (inactive) | 
